In patent US5684034A, “1H-indole-3-acetamide sPLA2 inhibitors” (Eli Lilly and Company, priority 1995, dated 1997):
Read-outs that look alike come from different tables or passages of the source.

What was measured:
[1] = target: T1, recombinant human secreted phospholipase A2 (Homo sapiens, UniProt P14555); test: Human secreted phospholipase A2 inhibition test (chromogenic assay, diheptanoyl thio-PC substrate); assay type: biochemical; conditions: pH 7.5, 40° C., 30 minutes, 405 nm
T1 sequence (P14555 21-144): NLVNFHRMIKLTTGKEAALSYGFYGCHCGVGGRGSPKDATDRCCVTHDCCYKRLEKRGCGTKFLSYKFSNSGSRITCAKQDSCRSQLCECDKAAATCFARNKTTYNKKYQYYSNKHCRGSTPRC
Method: The following chromogenic assay procedure was used to identify and evaluate inhibitors of recombinant human secreted phospholipase A2. The assay described herein has been adapted for high volume screening using 96 well microtiter plates.
A measured volume of racetic dipheptanoyl thio PC supplied in chloroform at a concentration of 100 mg/ml is taken to dryness and redissolved in 10 millimolar TRITON X-100™ nonionic detergent aqueous solution. Reaction Buffer is added to the solution, then DTNB to give the Reaction Mixture.
The reaction mixture thus obtained contains 1 mM diheptanoly thio-PC substrate, 0.29 mm Triton X-100™ detergent, and 0.12 mm DTMB in a buffered aqueous solution at pH 7.5.
1. Add 0.2 ml reaction mixture to all wells;
2. Add 10 ul test compound (or solvent blank) to appropriate wells, mix 20 seconds:
3. Add 50 nanograms of sPLA2 (10 microliters) to appropriate wells;
4. incubate plate at 40° C. for 30 minutes;
All compounds were tested in triplicate. […] Each sample was titrated in triplicate and result values were averaged for plotting and calculation of IC50 values. […] Each IC50 value was determined three times.

sPLA2 = target: T2, sPLA2 (Homo sapiens, UniProt P14555); test: Tissue test: sPLA2-induced contraction of guinea pig lung pleural strips; set-up: species or system guinea pig (male Hartley); conditions: % suppression of sPLA2 contraction (sPLA2 10 ug/ml) at compound concentration of 30 uM, read-out: Tissue Test (sPLA2) % Supp (30 uM)
T2 sequence (P14555 21-144): T1 sequence (P14555 21-144)
Excerpt: Male Hartley strain guinea pigs (500-700 g) were killed by cervical dislocation and their heart and lungs removed intact and placed in aerated (95% O2 :5% CO2) Krebs buffer. Dorsal pleural strips (4×1×25 mm) were dissected from intact parenchymal segments (8×4×25 mm) cut parallel to the outer edge of the lower lung lobes. Two adjacent pleural strips, obtained from a single lobe and representing a single tissue sample, were tied at either end and independently attached to a metal support rod. One rod was attached to a Grass force-displacement transducer (Model FTO3C, product of Grass Medical Instruments Co., Quincy, Mass., U.S.A.). […] All tissues were placed in 10 ml jacketed tissue baths maintained at 37° C. The tissue baths were continuously aerated and contained a modified Krebs solution of the following composition (millimolar) NaCl, 118.2; KCl, 4.6; CaCl2.2H2 O, 2.5; MgSO4.7H2 O, 1.2; NaHCO3, 24.8; KH2 PO4, 1.0; and dextrose, 10.0. Pleural strips from the opposite lobes of the lung were used for paired experiments. […] The tissues were allowed to equilibrate for 45 min. as the bath fluid was changed periodically.
Initially tissues were challenged 3 times with KCl (40 mM) to test tissue viability and to obtain a consistent response. After recording the maximal response to KCl, the tissues were washed and allowed to return to baseline before the next challenge. Cumulative concentration-response curves were obtained from pleural strips by increasing the agonist concentration (sPLA2) in the tissue bath by half-log10 increments while the previous concentration remained in contact with the tissues (Ref. 1, supra.) Agonist concentration was increased after reaching the plateau of the contraction elicited by the preceding concentration. One concentration-response curve was obtained from each tissue. To minimize variability between tissues obtained from different animals, contractile responses were expressed as a percentage of the maximal response obtained with the final KCl challenge. When studying the efects of various drugs on the contractile efects of sPLA2, the compounds and their respective vehicles were added to the tissues 30 min. prior to starting the sPLA2 concentration-response curves.
Data from different experiments were pooled and presented as a percentage of the maximal KCl responses (mean±S.E.). To estimate the drug induced rightward shifts in the concentration response curves, the curves were analyzed simultaneously using statistical nonlinear modeling methods similar to those described by Waud (1976), Equation 26, p. 163, (Ref. 2). The model includes four parameters: the maximum tissue response which was assumed the same for each curve, the ED50 for the control curve, the steepness of the curves, and the pA2, the concentration of antagonist chat requires a two-fold increase in agonist to achieve an equivalent response. The Schild slope was determined to be 1, using statistical nonlinear modeling methods similar to those described by Waud (1976), Equation 27, p. 164 (Ref. 2).
To estimate the drug-induced suppression of the maximal responses, sPLA2 responses (10 ug/ml) were determined in the absence and presence of drug, and percent suppression was calculated for each pair of tissues.

[2] = read-out: Inhibition of human secreted PLA2 IC50 ± mean deviation (3-5 tests)

Row | Structure (SMILES) | IC50 [1, 2] | inhibition at 30 µM (sPLA2) | IC50 ([1]; Inhibition of human secreted PLA2 IC50 ± mean deviation (3-5 tests))
1 | COc1ccc2c(c1)c(CC(N)=O)c(C)n2CC1CCCCC1 [Example 4, 1-Cyclohexylmethyl-5-methoxy-2-methyl-1H-indole-3-acetamide] | 2.05 ± 0.85 µM | 10.5 ± 23.1% | 
2 | COc1ccc2c(c1)c(CC(N)=O)c(C)n2Cc1ccccc1 [Example 5, 5-Methoxy-2-methyl-1-(phenylmethyl)-1H-indole-3-acetamide] | 0.84 ± 0.17 µM | 74.9 ± 4.2% | 
3 | CCc1c(CC(N)=O)c2cc(OC)ccc2n1Cc1ccccc1 [Example 9, 2-Ethyl-5-methoxy-1-(phenylmethyl)-1H-indole-3-acetamide] | 0.26 ± 0.11 µM | 49.2 ± 9.4% | 
4 | COc1ccc2c(c1)c(CC(N)=O)c(SC)n2Cc1ccccc1 [Example 12, 5-Methoxy-2-(methylthio)-1-(phenylmethyl)-1H-indole-3-acetamide] |  | 30.3 ± 15.2% | 0.4 ± 0.09 µM
5 | Cc1c(CC(N)=O)c2cc([N+](=O)[O-])ccc2n1Cc1ccccc1 [Example 16, 2-Methyl-5-nitro-1-(phenylmethyl)-1H-indole-3-acetamide] | 1.84 ± 0.44 µM | 51.7 ± 4.2% | 
6 | CCOC(=O)COc1ccc2c(c1)c(CC(N)=O)c(C)n2Cc1ccccc1 [Example 18, 2-[[3-(2-Amino-2-oxoethyl)-2-methyl-1-(phenylmethyl)-1H-indol-5-yl]oxy]acetic acid ethyl ester] | 0.8 ± 0.05 µM | 74.1 ± 4% | 
7 | Cc1c(CC(N)=O)c2cc(OCCCCC(=O)O)ccc2n1Cc1ccccc1 [Example 23, 5-[[3-(2-Amino-2-oxoethyl)-2-methyl-1-(phenylmethyl)-1H-indol-5-yl]oxy]pentanoic acid] | 0.92 ± 0.36 µM | 83.3 ± 2.7% | 
